Measured values as given in the supplement of paper PMC10883282.

Key:
Test in all cases: relative viability vs DMSO control (72 h) (fraction); higher = more viable cells
G401 = test system: G401
Summary of the method: (§1)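 Sarcoma cell lines were seeded in 384-well plates at densities chosen for 80–90% confluence, then 24 h later given 2.5 µl of serially diluted compound drawn from source plates spanning 10 mM to 0.0002 mM. They were held 72 h at 37 °C, 5% CO2, with 0.1% DMSO vehicle and a 5 µM positive control included. Relative viability was read with ATPLite as percent growth and averaged over up to triplicate wells. Rescaling placed full at 1 and none at 0.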

KHOS-240S = test system: KHOS-240S
Summary of the method: as §1

SW1353 = test system: SW1353
Summary of the method: as §1

SYO-1 = test system: SYO-1
Summary of the method: as §1

SW982 = test system: SW982
Summary of the method: as §1

HT1080 = test system: HT1080
Summary of the method: as §1

KHOS-NP = test system: KHOS-NP
Summary of the method: as §1

SW872 = test system: SW872
Summary of the method: as §1

SW684 = test system: SW684
Summary of the method: as §1

RD-ES = test system: RD-ES
Summary of the method: as §1

A204 = test system: A204
Summary of the method: as §1

SK-ES-1 = test system: SK-ES-1
Summary of the method: as §1

CCN1CCN(c2ccc(Nc3cc(N(C)C(=O)Nc4c(Cl)c(OC)cc(OC)c4Cl)ncn3)cc2)CC1 [Infigratinib]
Conditions	relative viability
A204, 85 pM	1.08
A204, 0.000254 µM	1.08
A204, 0.00076 µM	1.08
A204, 0.00229 µM	1.05
A204, 0.00686 µM	0.964
A204, 0.02058 µM	0.825
A204, 0.0617 µM	0.676
A204, 0.1852 µM	0.569
A204, 0.5556 µM	0.559
A204, 1.6667 µM	0.527
A204, 5 µM	0.408
G401, 85 pM	1.048
G401, 0.000254 µM	1.039
G401, 0.00076 µM	1.02
G401, 0.00229 µM	0.9703
G401, 0.00686 µM	0.952
G401, 0.02058 µM	0.8266
G401, 0.0617 µM	0.749
G401, 0.1852 µM	0.649
G401, 0.5556 µM	0.59
G401, 1.6667 µM	0.515
G401, 5 µM	0.33
HT1080, 85 pM	1.03
HT1080, 0.000254 µM	1.07
HT1080, 0.00076 µM	1.072
HT1080, 0.00229 µM	1.04
HT1080, 0.00686 µM	1.053
HT1080, 0.02058 µM	1.067
HT1080, 0.0617 µM	1.04
HT1080, 0.1852 µM	1.06
HT1080, 0.5556 µM	1.087
HT1080, 1.6667 µM	1.11
HT1080, 5 µM	1.01
KHOS-240S, 85 pM	1.058
KHOS-240S, 0.000254 µM	1.11
KHOS-240S, 0.00076 µM	1.08
KHOS-240S, 0.00229 µM	1.06
KHOS-240S, 0.00686 µM	1.06
KHOS-240S, 0.02058 µM	0.986
KHOS-240S, 0.0617 µM	0.926
KHOS-240S, 0.1852 µM	0.932
KHOS-240S, 0.5556 µM	0.907
KHOS-240S, 1.6667 µM	0.874
KHOS-240S, 5 µM	0.835
KHOS-NP, 85 pM	1.07
KHOS-NP, 0.000254 µM	1.12
KHOS-NP, 0.00076 µM	1.09
KHOS-NP, 0.00229 µM	1.06
KHOS-NP, 0.00686 µM	1.08
KHOS-NP, 0.02058 µM	1.085
KHOS-NP, 0.0617 µM	1.08
KHOS-NP, 0.1852 µM	1.05
KHOS-NP, 0.5556 µM	1.06
KHOS-NP, 1.6667 µM	1.08
KHOS-NP, 5 µM	1.08
RD-ES, 85 pM	0.972
RD-ES, 0.000254 µM	0.95
RD-ES, 0.00076 µM	0.965
RD-ES, 0.00229 µM	0.998
RD-ES, 0.00686 µM	0.981
RD-ES, 0.02058 µM	0.959
RD-ES, 0.0617 µM	0.957
RD-ES, 0.1852 µM	0.959
RD-ES, 0.5556 µM	0.928
RD-ES, 1.6667 µM	0.802
RD-ES, 5 µM	0.783
SK-ES-1, 85 pM	1.03
SK-ES-1, 0.000254 µM	1.07
SK-ES-1, 0.00076 µM	1
SK-ES-1, 0.00229 µM	1.06
SK-ES-1, 0.00686 µM	1.03
SK-ES-1, 0.02058 µM	1.01
SK-ES-1, 0.0617 µM	0.971
SK-ES-1, 0.1852 µM	0.929
SK-ES-1, 0.5556 µM	0.797
SK-ES-1, 1.6667 µM	0.559
SK-ES-1, 5 µM	0.373
SW684, 85 pM	1.18
SW684, 0.000254 µM	1.19
SW684, 0.00076 µM	1.19
SW684, 0.00229 µM	1.14
SW684, 0.00686 µM	1.18
SW684, 0.02058 µM	1.18
SW684, 0.0617 µM	1.16
SW684, 0.1852 µM	1.17
SW684, 0.5556 µM	1.15
SW684, 1.6667 µM	1.22
SW684, 5 µM	1.14
SW872, 85 pM	1.09
SW872, 0.000254 µM	1.097
SW872, 0.00076 µM	1.09
SW872, 0.00229 µM	1.06
SW872, 0.00686 µM	1.03
SW872, 0.02058 µM	1.03
SW872, 0.0617 µM	1.06
SW872, 0.1852 µM	1.04
SW872, 0.5556 µM	1.01
SW872, 1.6667 µM	0.882
SW872, 5 µM	0.839
SW982, 85 pM	1.01
SW982, 0.000254 µM	1.07
SW982, 0.00076 µM	1.02
SW982, 0.00229 µM	1.05
SW982, 0.00686 µM	1.05
SW982, 0.02058 µM	1.05
SW982, 0.0617 µM	1.07
SW982, 0.1852 µM	1.061
SW982, 0.5556 µM	0.98
SW982, 1.6667 µM	0.78
SW982, 5 µM	0.732
SW1353, 85 pM	1.06
SW1353, 0.000254 µM	1.069
SW1353, 0.00076 µM	1.04
SW1353, 0.00229 µM	1.01
SW1353, 0.00686 µM	0.98
SW1353, 0.02058 µM	0.914
SW1353, 0.0617 µM	0.861
SW1353, 0.1852 µM	0.861
SW1353, 0.5556 µM	0.861
SW1353, 1.6667 µM	0.8437
SW1353, 5 µM	0.741
SYO-1, 85 pM	1.02
SYO-1, 0.000254 µM	0.973
SYO-1, 0.00076 µM	0.975
SYO-1, 0.00229 µM	0.901
SYO-1, 0.00686 µM	0.827
SYO-1, 0.02058 µM	0.655
SYO-1, 0.0617 µM	0.626
SYO-1, 0.1852 µM	0.63
SYO-1, 0.5556 µM	0.596
SYO-1, 1.6667 µM	0.623
SYO-1, 5 µM	0.606

CCS(=O)(=O)N1CC(CC#N)(n2cc(-c3ncnc4[nH]ccc34)cn2)C1 [Baricitinib]
Conditions	relative viability
A204, 0.00017 µM	1.06
A204, 0.00051 µM	1.04
A204, 0.00152 µM	1.05
A204, 0.00457 µM	1.05
A204, 0.01372 µM	1.03
A204, 0.04115 µM	1.04
A204, 0.1235 µM	1.02
A204, 0.3704 µM	1.01
A204, 1.111 µM	0.971
A204, 3.333 µM	0.934
A204, 10 µM	0.83
G401, 0.00017 µM	0.955
G401, 0.00051 µM	0.9564
G401, 0.00152 µM	0.975
G401, 0.00457 µM	0.963
G401, 0.01372 µM	0.948
G401, 0.04115 µM	0.98
G401, 0.1235 µM	0.965
G401, 0.3704 µM	0.961
G401, 1.111 µM	0.978
G401, 3.333 µM	0.959
G401, 10 µM	0.887
HT1080, 0.00017 µM	1.05
HT1080, 0.00051 µM	1.04
HT1080, 0.00152 µM	1.05
HT1080, 0.00457 µM	1.04
HT1080, 0.01372 µM	1.05
HT1080, 0.04115 µM	1.06
HT1080, 0.1235 µM	1.024
HT1080, 0.3704 µM	1.04
HT1080, 1.111 µM	1.02
HT1080, 3.333 µM	1.07
HT1080, 10 µM	1.024
KHOS-240S, 0.00017 µM	1.035
KHOS-240S, 0.00051 µM	1.022
KHOS-240S, 0.00152 µM	1.037
KHOS-240S, 0.00457 µM	1.04
KHOS-240S, 0.01372 µM	1.03
KHOS-240S, 0.04115 µM	1.019
KHOS-240S, 0.1235 µM	1.05
KHOS-240S, 0.3704 µM	1.03
KHOS-240S, 1.111 µM	1.04
KHOS-240S, 3.333 µM	0.958
KHOS-240S, 10 µM	0.7777
KHOS-NP, 0.00017 µM	1.04
KHOS-NP, 0.00051 µM	1.04
KHOS-NP, 0.00152 µM	1.052
KHOS-NP, 0.00457 µM	1.06
KHOS-NP, 0.01372 µM	1.04
KHOS-NP, 0.04115 µM	1.04
KHOS-NP, 0.1235 µM	1.06
KHOS-NP, 0.3704 µM	1.02
KHOS-NP, 1.111 µM	1.03
KHOS-NP, 3.333 µM	0.985
KHOS-NP, 10 µM	0.906
RD-ES, 0.00017 µM	0.981
RD-ES, 0.00051 µM	0.9701
RD-ES, 0.00152 µM	0.947
RD-ES, 0.00457 µM	0.9683
RD-ES, 0.01372 µM	0.951
RD-ES, 0.04115 µM	0.947
RD-ES, 0.1235 µM	0.956
RD-ES, 0.3704 µM	0.9847
RD-ES, 1.111 µM	1.03
RD-ES, 3.333 µM	1.04
RD-ES, 10 µM	1.04
SK-ES-1, 0.00017 µM	0.959
SK-ES-1, 0.00051 µM	1.01
SK-ES-1, 0.00152 µM	1.004
SK-ES-1, 0.00457 µM	0.986
SK-ES-1, 0.01372 µM	0.9898
SK-ES-1, 0.04115 µM	0.987
SK-ES-1, 0.1235 µM	0.987
SK-ES-1, 0.3704 µM	0.958
SK-ES-1, 1.111 µM	1.04
SK-ES-1, 3.333 µM	1.05
SK-ES-1, 10 µM	1.01
SW684, 0.00017 µM	1.06
SW684, 0.00051 µM	1.04
SW684, 0.00152 µM	1.12
SW684, 0.00457 µM	1.09
SW684, 0.01372 µM	1.13
SW684, 0.04115 µM	1.07
SW684, 0.1235 µM	1.09
SW684, 0.3704 µM	1.03
SW684, 1.111 µM	1.07
SW684, 3.333 µM	1.05
SW684, 10 µM	0.915
SW872, 0.00017 µM	1.014
SW872, 0.00051 µM	1.01
SW872, 0.00152 µM	1.03
SW872, 0.00457 µM	1.03
SW872, 0.01372 µM	1.05
SW872, 0.04115 µM	1.04
SW872, 0.1235 µM	1.03
SW872, 0.3704 µM	1.03
SW872, 1.111 µM	1.05
SW872, 3.333 µM	1.01
SW872, 10 µM	0.877
SW982, 0.00017 µM	0.981
SW982, 0.00051 µM	0.983
SW982, 0.00152 µM	0.976
SW982, 0.00457 µM	0.985
SW982, 0.01372 µM	1.0047
SW982, 0.04115 µM	0.98
SW982, 0.1235 µM	0.987
SW982, 0.3704 µM	0.993
SW982, 1.111 µM	0.98
SW982, 3.333 µM	0.966
SW982, 10 µM	0.748
SW1353, 0.00017 µM	0.952
SW1353, 0.00051 µM	0.931
SW1353, 0.00152 µM	0.977
SW1353, 0.00457 µM	0.975
SW1353, 0.01372 µM	0.947
SW1353, 0.04115 µM	0.961
SW1353, 0.1235 µM	0.953
SW1353, 0.3704 µM	0.969
SW1353, 1.111 µM	0.985
SW1353, 3.333 µM	0.915
SW1353, 10 µM	0.786
SYO-1, 0.00017 µM	0.994
SYO-1, 0.00051 µM	1.01
SYO-1, 0.00152 µM	1.01
SYO-1, 0.00457 µM	0.994
SYO-1, 0.01372 µM	0.999
SYO-1, 0.04115 µM	0.993
SYO-1, 0.1235 µM	0.988
SYO-1, 0.3704 µM	0.985
SYO-1, 1.111 µM	0.988
SYO-1, 3.333 µM	0.952
SYO-1, 10 µM	0.897
